Values of other authors, collected in patent US20090196894A1, “Self Tanning Composition” (priority 2006, published 2009).

Settings: over the entire pH range, among the investigated hydroxyflavones

O=c1c(O)c(-c2ccc(O)c(O)c2)oc2cc(O)cc(O)c12 [quercetin, 3,3′,4′,5,7-pentahydrooxyflavone]
antioxidative effect: highest activity
